Patent US20110178064A1, “SPIRO CONDENSED […] DERIVATIVES FOR USE AS ANTIBACTERIAL” (A[…]&D, priority 2007, published 2011)
pIC50: −log10 of the molar value.

The compounds below were run against Escherichia coli DNA gyrase A/B tetramer (Escherichia coli, UniProt P0AES4+P0AES6) (assay: DNA gyrase supercoiling activity fluorescence polarisation assay). Conditions: not given.
Type: biochemical
Protocol: The supercoiling reactions may be quenched by the addition of 10 microliters/well of 40 nM oligodeoxynucleotide probe in 3× triplex-forming buffer consisting of 150 mM NaCl, and 150 mM sodium acetate at pH 3.5. The oligodeoxynucleotide probe may be 5′-BODIPY-FL-labeled […]. After 60 minutes, the fluorescence anisotropy of the BODIPY-FL may be measured in a Tecan Ultra plate reader, using 485 nm excitation and 535 nm emission filters equipped with polarizers. The IC50 may be determined by nonliner regression using two control reactions. The first contains no test compound but 0.8% DMSO (100% activity) while the second control reaction contains 5 uM Ciprofloxacin and 0.8% DMSO (0% activity).

Escherichia coli DNA gyrase A/B tetramer, sequence (P0AES4 whole entry, one chain of several): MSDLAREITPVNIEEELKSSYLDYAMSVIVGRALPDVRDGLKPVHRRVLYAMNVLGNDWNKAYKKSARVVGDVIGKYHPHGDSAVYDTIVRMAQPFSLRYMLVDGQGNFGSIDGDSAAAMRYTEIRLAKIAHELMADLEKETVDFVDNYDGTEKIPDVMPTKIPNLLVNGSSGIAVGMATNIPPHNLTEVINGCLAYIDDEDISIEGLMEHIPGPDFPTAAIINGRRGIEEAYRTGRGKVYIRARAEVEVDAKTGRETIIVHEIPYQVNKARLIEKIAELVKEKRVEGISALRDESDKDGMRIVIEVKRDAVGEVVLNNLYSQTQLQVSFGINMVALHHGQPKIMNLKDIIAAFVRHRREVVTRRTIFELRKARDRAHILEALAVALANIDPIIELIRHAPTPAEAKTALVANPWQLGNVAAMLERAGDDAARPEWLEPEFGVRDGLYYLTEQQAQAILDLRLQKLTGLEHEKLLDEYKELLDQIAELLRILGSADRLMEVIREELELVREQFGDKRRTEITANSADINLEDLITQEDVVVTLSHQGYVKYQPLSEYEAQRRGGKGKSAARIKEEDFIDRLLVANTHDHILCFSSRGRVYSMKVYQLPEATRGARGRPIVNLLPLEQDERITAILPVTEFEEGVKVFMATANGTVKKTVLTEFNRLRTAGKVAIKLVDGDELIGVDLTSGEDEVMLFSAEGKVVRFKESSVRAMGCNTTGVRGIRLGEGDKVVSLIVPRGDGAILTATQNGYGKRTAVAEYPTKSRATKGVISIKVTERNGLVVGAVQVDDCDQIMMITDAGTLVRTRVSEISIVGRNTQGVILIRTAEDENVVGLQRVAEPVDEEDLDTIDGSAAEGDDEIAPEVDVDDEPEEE

**Q.** How did the pIC50 turn out when Cc1ccc(-c2cnc3c(c2)CC2(C(=O)NC(=O)NC2=O)[C@H]2[C@H](C)O[C@H](C)CN32)s1 (relative stereo) [Example 29, (6aS,7S,9R)-rel-7,9-Dimethyl-3-(5-methylthiophen-2-yl)-6a,7,9,10-tetrahydro-2′H,5H-spiro[1,4oxazino[4,3-a][1,8]naphthyridine-6,5′-pyrimidine]-2′,4′,6′(1′H,3′H)-trione] was run?
**A.** 5.05

**Q.** With C[C@@H]1CN2c3ccc(-c4ccoc4)nc3CC3(C(=O)NC(=O)NC3=O)[C@H]2[C@H](C)O1 (relative stereo) [Example 76, (2R,4S,4aS)-rel-8-(Furan-3-yl)-2,4-dimethyl-1,2,4,4a-tetrahydro-2′H,6H-spiro[1,4-oxazino[4,3-a][1,5]naphthyridine-5,5′-pyrimidine]-2′,4′,6′(1′H,3′H)-trione] as the compound, how does the pIC50 read?
**A.** 4.68

**Q.** C[C@@H]1CN2c3ccc(-c4ccncc4)nc3CC3(C(=O)NC(=O)NC3=O)[C@H]2[C@H](C)O1 (relative stereo) [Example 78, (2R,4S,4aS)-rel-2,4-dimethyl-8-(pyridin-4-yl)-1,2,4,4a-tetrahydro-2′H,6H-spiro[1,4-oxazino[4,3-a][1,5]naphthyridine-5,5′-pyrimidine]-2′,4′,6′(1′H,3′H)-trione] was tested. Which pIC50 did it give?
**A.** 5.70

**Q.** C[C@@H]1CN2c3ncc(-c4cn(C)cn4)cc3CC3(C(=O)NC(=O)NC3=O)[C@H]2[C@H](C)O1 (relative stereo) [Example 33, (6aS,7S,9R)-rel-7,9-Dimethyl-3-(1-methyl-1H-imidazol-4-yl)-6a,7,9,10-tetrahydro-2′H,5H-spiro[1,4-oxazino[4,3-a][1,8]naphthyridine-6,5′-pyrimidine]-2′,4′,6′(1′H,3′H)-trione] was tested. Which pIC50 did it give?
**A.** 4.32

**Q.** C[C@@H]1CN2c3cncc(F)c3CC3(C(=O)NC(=O)NC3=O)[C@H]2[C@H](C)O1 (relative stereo) [Example 6, (6aS,7S,9R)-rel-4-Fluoro-7,9-dimethyl-6a,7,9,10-tetrahydro-1′H,5H-spiro[[1,4]oxazino[4,3-a][1,7]naphthyridine-6,5′-pyrimidine]-2′,4′,6′(3′H)-trione] was tested. Which pIC50 did it give?
**A.** < 4.08

**Q.** With COc1nc2c(cc1-c1nnc(C)s1)CC1(C(=O)NC(=O)NC1=O)[C@H]1[C@H](C)O[C@H](C)CN21 (racemic) [Example 119, (6aS,7S,9R)-rel-2-Methoxy-7,9-dimethyl-3-(5-methyl-1,3,4-thiadiazol-2-yl)-6a,7,9,10-tetrahydro-1′H,5H-spiro[[1,4]oxazino[4,3-a][1,8]naphthyridine-6,5′-pyrimidine]-2′., 4′,6′(3′H)-trione] as the compound, how does the pIC50 read?
**A.** 4.68

**Q.** C[C@@H]1CN2c3nc(F)c(I)cc3CC3(C(=O)NC(=O)NC3=O)[C@H]2C(=O)N1 (relative stereo) [Example 14, (6aS,9R)-rel-2-Fluoro-3-iodo-9-methyl-9,10-dihydro-1′H-spiro[pyrazino[1,2-a][1,8]naphthyridine-6,5′-pyrimidine]-2′,4′,6′,7(3′H,5H,6aH,8H)-tetraone] was tested. Which pIC50 did it give?
**A.** 4.96

**Q.** With C[C@@H]1CN2c3ncc(-c4nccn4C)cc3CC3(C(=O)NC(=O)NC3=O)[C@H]2[C@H](C)O1 (racemic) [Example 32, (6aS,7S,9R)-rel-7,9-Dimethyl-3-(1-methyl-1H-imidazol-2-yl)-6a., 7,9,10-tetrahydro-2′H,5H-spiro[1,4-oxazino[4,3-a][1,8]naphthyridine-6,5′-pyrimidine]-2′,4′,6′(1′H,3′H)-trione] as the compound, how does the pIC50 read?
**A.** 4.62

**Q.** Cc1ccccc1-c1cnc2c(c1)CC1(C(=O)NC(=O)NC1=O)[C@H]1[C@H](C)O[C@H](C)CN21 (relative stereo) [Example 82, (6aS,7S,9R)-rel-7,9-Dimethyl-3-(2-methylphenyl)-6a,7,9,10-tetrahydro-2′H,5H-spiro[1,4-oxazino[4,3-a][1,8]naphthyridine-6,5′-pyrimidine]-2′,4′,6′(1′H,3′H)-trione] was tested. Which pIC50 did it give?
**A.** < 4.08

**Q.** How did the pIC50 turn out when CC1CC(C)C2N(C1)c1cnc(Br)cc1CC21C(=O)NC(=O)NC1=O (stereo not drawn) [Example 2, 3-Bromo-7,9-Dimethyl-5,6a,7,8,9,10-hexahydro-1′H-spiro[pyrido[1,2-a][1,7]naphthyridine-6,5′-pyrimidine]-2′,4′,6′(3′H)-trione] was run?
**A.** 5.05

**Q.** C[C@@H]1CN2c3cc(Cl)ncc3CC3(C(=O)NC(=O)NC3=O)[C@H]2[C@H](C)O1 (relative stereo) [Example 115, (2R,4S,4aS)-rel-9-chloro-2,4-dimethyl-1,2,4,4a-tetrahydro-2′H,6H-spiro[1,4-oxazino[4,3-a][1,6]naphthyridine-5,5′-pyrimidine]-2′,4′,6′(1′H,3′H)-trione] was tested. Which pIC50 did it give?
**A.** < 4.70

**Q.** With C[C@@H]1CN2c3cnc(-c4cccs4)cc3CC3(C(=O)NC(=O)NC3=O)[C@H]2[C@H](C)O1 (relative stereo) [Example 116, (6aS,7S,9R)-rel-7,9-dimethyl-3-(thiophen-2-yl)-6a,7,9,10-tetrahydro-1′H,5H-spiro[[1,4]oxazino[4,3-a][1,7]naphthyridine-6,5′-pyrimidine]-2′,4′,6′(3′H)-trione] as the compound, how does the pIC50 read?
**A.** 4.48

**Q.** How did the pIC50 turn out when C[C@@H]1CN2c3cnc(-c4nc5ccccc5s4)cc3CC3(C(=O)NC(=O)NC3=O)[C@H]2[C@H](C)O1 (relative stereo) [Example 89, (6aS,7S,9R)-rel-3-(1,3-benzothiazol-2-yl)-7,9-dimethyl-6a,7,9,10-tetrahydro-2′H,5H-spiro[1,4-oxazino[4,3-a][1,7]naphthyridine-6,5′-pyrimidine]-2′,4′,6′(1′H,3′H)-trione] was run?
**A.** 4.96

**Q.** C[C@H]1CN2c3ncc(-c4nnnn4C)cc3CC3(C(=O)NC(=O)NC3=O)[C@@H]2[C@@H](C)O1 (relative stereo) [Example 120(b), (6aR,7R,9S)-rel-7,9-Dimethyl-3-(1-methyl-1H-tetrazol-5-yl)-6a,7,9,10-tetrahydro-2′H,5H-spiro[1,4-oxazino[4,3-a][1,8]naphthyridine-6,5′-pyrimidine]-2′,4′,6′(1′H,3′H)-trione] was tested. Which pIC50 did it give?
**A.** 4.85

**Q.** C[C@@H]1CN2c3ncc(-c4ccoc4)cc3CC3(C(=O)NC(=O)NC3=O)[C@H]2[C@H](C)O1 (relative stereo) [Example 48, (6aS,7S,9R)-rel-3-(Furan-3-yl)-7,9-dimethyl-6a,7,9,10-tetrahydro-2′H,5H-spiro[1,4-oxazino[4,3-a][1,8]naphthyridine-6,5′-pyrimidine]-2′,4′,6′(1′H,3′H)-trione] was tested. Which pIC50 did it give?
**A.** 4.77

**Q.** With C[C@@H]1CN2c3ncc(-c4cscn4)cc3CC3(C(=O)NC(=O)NC3=O)[C@H]2[C@H](C)O1 (relative stereo) [Example 100, (6aS,7S,9R)-rel-7,9-Dimethyl-3-(1,3-thiazol-4-yl)-6a,7,9,10-tetrahydro-2′H,5H-spiro[1,4-oxazino[4,3-a][1,8]naphthyridine-6,5′-pyrimidine]-2′,4′,6′(1′H,3′H)-trione] as the compound, how does the pIC50 read?
**A.** 5.15

Same assay, conditions: E. coli DNA gyrase supercoiling; asterisk: no IC50 obtained at or below the indicated concentration; read-out: IC50

**Q.** With CC1CN2c3ncc(-c4ccnn4C)cc3CC3(C(=O)NC(=O)NC3=O)C2C(C)O1 [Example 41, (6aS,7S,9R)-rel-7,9-Dimethyl-3-(1-methyl-1H-pyrazol-5-yl)-6a., 7,9,10-tetrahydro-2′H,5H-spiro[1,4-oxazino[4,3-a][1,8]naphthyridine-6,5′-pyrimidine]-2′,4′,6′(1′H,3′H)-trione] as the compound, how does the pIC50 read?
**A.** 5.30

**Q.** How did the pIC50 turn out when CC1CN2c3ncc(-c4nccs4)cc3CC3(C(=O)NC(=O)NC3=O)C2C(C)O1 [Example 25, (6aS,7S,9R)-rel-7,9-Dimethyl-3-(1,3-thiazol-2-yl)-6a., 7,9,10-tetrahydro-2′H,5H-spiro[1,4-oxazino[4,3-a][1,8]naphthyridine-6,5′-pyrimidine]-2′,4′,6′(1′H,3′H)-trione] was run?
**A.** 5.05
